Literature values in patent US8193207B2, “Lactam compounds and methods of using the same” (Incyte Corporation, priority 2005, dated 2012).

Biological target: T1, 11βHSD1 in the eye (Homo sapiens, UniProt P28845)
T1 construct: host or cells: eye tissue (non-pigmented epithelial cells) of healthy volunteers, in vivo
Settings: healthy volunteers; after seven days of carbenoxolone treatment

T1 sequence (P28845 whole entry): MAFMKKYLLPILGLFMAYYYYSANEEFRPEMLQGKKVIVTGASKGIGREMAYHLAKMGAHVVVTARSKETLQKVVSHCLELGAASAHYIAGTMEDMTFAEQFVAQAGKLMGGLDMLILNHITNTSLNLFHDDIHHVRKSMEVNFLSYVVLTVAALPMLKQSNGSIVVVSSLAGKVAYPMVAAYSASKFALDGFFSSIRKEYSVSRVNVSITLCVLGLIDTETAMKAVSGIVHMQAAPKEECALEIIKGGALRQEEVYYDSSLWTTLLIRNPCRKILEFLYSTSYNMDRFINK

IOP reduction: 18%
SMILES: CC1(C)[C@@H](OC(=O)CCC(=O)O)CC[C@]2(C)[C@H]3C(=O)C=C4[C@@H]5C[C@@](C)(C(=O)O)CC[C@]5(C)CC[C@@]4(C)[C@]3(C)CC[C@@H]12 [carbenoxolone]
